What was measured:
Assay in all cases: Exemple A: herbicide application, pre-emergence
Type in all cases: in vivo
Details in all cases: notation 0 à 5 after 24 days
Avena fatua = system: Avena fatua
Excerpt: (§1) Exemple A - Application herbicide, en prélevée des espèces végétales
(§2) Dans des pots de 7 x 7 x 8 cm remplis de terre agricole légère, on sème un nombre de graines déterminé en fonction de l'espèce végétale et de la grosseur de la graine.
(§3) Les pots sont traités par pulvérisation de bouillie en quantité correspondant à une dose volumique d'application de 500 l/ha et contenant la matière active à la concentration désirée.
(§4) Le traitement avec la bouillie est donc effectué sur des graines non recouvertes de terre (on utilise le terme de bouillie pour désigner, en général, les compositions diluées à l'eau, telles qu'on les applique sur les végétaux).
(§5) La bouillie utilisée pour le traitement est une solution ou suspension de la matière active dans un mélange acétone/eau en proportions 50/50, en présence de 0,05 % en poids de cemulsol NP 10 (agent tensio-actif) constitué d'alkylphénol polyéthoxylé, notamment de nonylphénol polyéthoxylé) et 0,04 % en poids de tween 20 (agent tensio-actif constitué d'un oléate de dérivé polyoxyéthyléné du sorbitol).
(§6) Dans le cas d'une suspension, celle-ci est obtenue en mélangeant et broyant les ingrédients dans un microniseur de façon à obtenir une grosseur moyenne de particules inférieure à 40 microns.
(§7) Après traitement, on recouvre les graines d'une couche de terre d'environ 3 mm d'épaisseur.
(§8) Les pots sont alors placés dans des bacs destinés à recevoir l'eau d'arrosage, en subirrigation, et maintenus pendant 24 jours à température ambiante sous 70 % d'humidité relative.
(§9) Le relevé est effectué de la façon suivante:
(§10) Au bout de 24 jours, on mesure un pourcentage (D) des destructions du nombre de pieds dans le pot traité par rapport au nombre de plantes dans les pots non traités (témoin). On mesure, sur les plantes traitées restantes, le pourcentage de réduction de taille (RT) par rapport aux plantes témoin.
(§11) Le pourcentage du volume foliaire non détruit par le produit est donc donné par la formule: ([100-D] x [100-RT])/(100)= A [formula]
(§12) Cette valeur A est transformée en notation de 0 à 5 selon l'échelle suivante:
(§13) Les résultats obtenus sont présentés après l'exemple B pour des doses d'application de 4000 g/ha à 1000 g/ha.
(§14) Les espèces végétales utilisées dans ces exemples A et B sont: […]

Echinochloa crus galli = system: Echinochloa crus galli
Excerpt: as §1, §2, §3, §4, §5, §6, §7, §8, §9, §10, §11, §12, §13, §14

Alopecurus myosuroïdes = system: Alopecurus myosuroïdes
Excerpt: as §1, §2, §3, §4, §5, §6, §7, §8, §9, §10, §11, §12, §13, §14

Digitaria sanguinalis = system: Digitaria sanguinalis
Excerpt: as §1, §2, §3, §4, §5, §6, §7, §8, §9, §10, §11, §12, §13, §14

Cyperus esculentus = system: Cyperus esculentus
Excerpt: as §1, §2, §3, §4, §5, §6, §7, §8, §9, §10, §11, §12, §13, §14

| Structure (SMILES) | ACTIVITE HERBICIDE DE PRELEVEE AVE (Avena fatua; dose 1 Kg m.a./ha) | ACTIVITE HERBICIDE DE PRELEVEE ECH (Echinochloa crus galli; dose 1 Kg m.a./ha) | ACTIVITE HERBICIDE DE PRELEVEE ALO (Alopecurus myosuroïdes; dose 1 Kg m.a./ha) | ACTIVITE HERBICIDE DE PRELEVEE DIG (Digitaria sanguinalis; dose 1 Kg m.a./ha) | ACTIVITE HERBICIDE DE PRELEVEE CYP (Cyperus esculentus; dose 1 Kg m.a./ha) | ACTIVITE HERBICIDE DE PRELEVEE AVE (Avena fatua; dose 4 Kg m.a./ha) | ACTIVITE HERBICIDE DE PRELEVEE ECH (Echinochloa crus galli; dose 4 Kg m.a./ha) | ACTIVITE HERBICIDE DE PRELEVEE ALO (Alopecurus myosuroïdes; dose 4 Kg m.a./ha) | ACTIVITE HERBICIDE DE PRELEVEE DIG (Digitaria sanguinalis; dose 4 Kg m.a./ha) | ACTIVITE HERBICIDE DE PRELEVEE CYP (Cyperus esculentus; dose 4 Kg m.a./ha) |
| --- | --- | --- | --- | --- | --- | --- | --- | --- | --- | --- |
| C=C(CS(=O)(=O)c1cccs1)c1cc(F)cc(F)c1 [compound 7, 2-(3,5-difluorophényl) 1-(2-thiénylsulfonyl) 2-propène] | 1 (70 à 90) | 5 (O à 10) | 5 (O à 10) | 5 (O à 10) | 1 (70 à 90) |  |  |  |  |  |
| C=C(CS(=O)(=O)c1sccc1Br)c1cccc(F)c1 [compound 9, 1-[(3-bromo 2-thiényl)sulfonyl] 2-(3-fluorophényl)2-propène] |  |  |  |  |  | 5 (O à 10) | 5 (O à 10) | 5 (O à 10) | 5 (O à 10) | 4 (10 à 30) |
| C=C(CS(=O)(=O)c1cccs1)c1cccc(F)c1 [compound 3, 2-(3-fluorophényl) 1-(2-thiénylsulfonyl) 2-propène] | 1 (70 à 90) | 5 (O à 10) | 5 (O à 10) | 5 (O à 10) | 5 (O à 10) |  |  |  |  |  |

From patent publication EP0435794A1, “Alkenyl- or heteroaryl thio, sulfone, sulfoxy herbicides” (RHONE-POULENC AGROCHIMIE, priority 1989, dated 1991)
